System: lipid oxidation in 1-stearoyl-2-linoleoyl-sn-glycero-3-phosphocholine large unilamellar vesicles (LUVs)
Experiment: Fluorescence assay for antioxidant activity (DPH-PA probe, Fe2+-induced lipid peroxidation in large unilamellar vesicles)
Format: biochemical
Settings: pH 7.0; for % of inhibition (percent inhibition based upon Fe+2 oxidation): 21 min
Description: The fluorescent assay is described first.
Fluorescence assay for antioxidant activity (general): The need to screen large numbers of compounds or extracts for antioxidant activity requires that a model system (or systems) be employed which reasonably well represents the structural and functional characteristics of the substrate in the food product. The test must also be sensitive, rapid, and inexpensive. […] Large unilamellar vesicles consisting of 1-stearoyl-2-linoleoly-sn-glycero-3-phosphocholine are prepared, which closely resemble the properties of biological membranes, one of the primary sites of peroxidation. A fluorescent probe, 1,6-diphenylhexatriene propionic acid, is incorporated into the membranes such that the polar head group anchors the probe near the aqueous interface, while the hydrophobic portion lies parallel to the fatty acid chains. This probe reacts with the free radicals generated during peroxidation, resulting in a decrease in fluorescence intensity with time. A peroxidation initiator (such as ferrous metal ions or the free radical generator AAPH (Azobis-[2-amidinopropane hydrochloride]) is used to start the reaction, and the kinetics of fluorescence decrease are determined in the presence or absence of the antioxidant to be tested. An assay for a compound at a given concentration presently takes only twenty-one minutes, consumes only a few micrograms of lipid, and can be readily conducted with a simple fluorometer.
Briefly, the lipid is dissolved in chloroform, and is dried to a thin film using a rotary evaporator. The dried film is resuspended in an aqueous buffer, and is repeatedly extruded through a polycarbonate filter of 100 nm pore size using a Liposofast piposome extruder (Avestin, Inc., Ottawa, Canada). […] The fluorescent probe, diphenylhexatriene-propionic acid (DPH-PA), is incorporated into the vesicles during preparation at a mole ratio of 1:350 (probe:lipid). For the fluorescence experiments, LUVs containing DPH-PA is suspended at a final concentration of 100 μM in 100 mM NaCl, 50 mM tris-HEPES buffer at pH 7.0. The fluorescent probe is excited at 384 nm and emission is monitored at 423 nm. […] AAPH; the progress is monitored by the decrease of the fluorescence intensity of DPH-PA resulting from reaction with free radicals generated over twenty-one minutes. A plot of the decrease of fluorescence intensity as a function of time will be used to determine the kinetics of lipid oxidation.
^1 --Fuorescent intensity at 21 minutes.
^2 --Percent Inhibition based upon Fe^+2 oxidation.

| Compound | % of inhibition (percent inhibition based upon Fe+2 oxidation) (2 μM) [%] | Fl. int. at 21 min. (fluorescent intensity at 21 minutes) (2 μM) | % of inhibition (percent inhibition based upon Fe+2 oxidation) (concentration not given) [%] | Fl. int. at 21 min. (fluorescent intensity at 21 minutes) (concentration not given) |
| --- | --- | --- | --- | --- |
| C[C@@H]1O[C@@H](OC[C@H]2O[C@@H](Oc3cc4c(O)cc(O)cc4[o+]c3-c3ccc(O)c(O)c3)[C@H](O[C@@H]3O[C@H](CO)[C@@H](O)[C@H](O)[C@H]3O)[C@@H](O)[C@@H]2O)[C@H](O)[C@H](O)[C@H]1O [Anthocyanin 1, Cyanidin-3-(2"-O-β-D-glucopyranosyl-6"-O-α-L-rhamnosyl-β-D-glucopyranoside)] | 38.6 | 0.48 | – | – |
| C[C@@H]1O[C@@H](OC[C@H]2O[C@@H](Oc3cc4c(O)cc(O)cc4[o+]c3-c3ccc(O)c(O)c3)[C@H](O)[C@@H](O)[C@@H]2O)[C@H](O)[C@H](O)[C@H]1O [Anthocyanin II, Cyanidin-3-(6"-O-α-L-rhamnopyranosyl-β-D-glucopyranoside)] | – | – | 70.0 | 0.7 |
| COc1ccc(O)c(C(C)(C)C)c1 [BHA] | 87.1 | 0.82 | – | – |
| Cc1cc(C(C)(C)C)c(O)c(C(C)(C)C)c1 [BHT] | 94.3 | 0.87 | – | – |
| CCCOC(=O)c1cc(O)c(O)c(O)c1 [Propyl gallate] | 78.6 | 0.76 | – | – |
| CC(C)(C)c1cc(O)ccc1O [TBHQ] | 90.0 | 0.84 | – | – |
| Cc1c(C)c2c(c(C)c1O)CCC(C)(CCCC(C)CCCC(C)CCCC(C)C)O2 (centres unmarked) [a-Tocopherol] | 0.0 | 0.21 | – | – |
